Consider 1 substance from patent US20030228675A1, “ATM related kinase ATX, nucleic acids encoding same and methods of use” (priority 2002, published 2003).

Holding throughout (type): cell-based, human
One data set has as its system ATX. Kind of data set: Protein levels in oligonucleotide-treated cells by immunoblotting. The settings on record: U2OS. As for the experimental part: To prepare recombinant HA-tagged ATX and ATM proteins, HEK 293T cells were plated onto 60-mm dishes (9×10^5 cells per dish), and were transfected with 5 μg pcDNA3.1 (empty vector), HA-ATXWT, HA-ATXKI, or HA-ATMWT plasmid DNAS. Transfections were performed with the Fugene 6 transfection reagent (Roche), according to the manufacturer's instructions. For NMD assays (see Example 9, below), U2OS cells were seeded onto 100 mm dishes (1×10^6 cells per dish). After 20 h, cells were transfected with 1.5 μg of pmCMV-Gl test plasmid, either Norm or 39Ter (Ishigaki et al., 2001); 1.5 μg of phCMV-MUP reference plasmid (Ishigaki et al., Cell 106:607-617 (2001)); and 7 μg of empty plasmid (pcDNA 3.1), plasmids encoding HA-ATMWT, HA-ATMKI, HA-ATXWT or HA-ATXKI. […]
Since p53 plays a central role in activation of the G1 checkpoint, and influences S, G2, and M checkpoints as well (Giaccia and Kastan, Genes & Development 12:2973-2983 (1998); Ko and Prives, supra, 1996), a functional deficiency of ATX might alter the cell-cycle arrest responses to IR and other genotoxic agents. To test this possibility, U2OS cells were pre-treated with S or AS oligonucleotides, exposed to IR, and cell-cycle distributions at 24 h post-irradiation were determined. […]
(In general: A western blot detects proteins with antibodies after separation by electrophoresis.)

The next data set deals with hChk2. Kind of data set: IR-dependent phosphorylation of hChk2. To be noted: U2OS. The source says: Recent findings point toward ATM as a critical upstream regulator of the activity of the checkpoint kinase, hChk2, in IR-damaged cells (Ahn et al., Cancer Res. 60:5934-5936 (2000); Melchionna et al., Nat. Cell Biol. 2:762-765 (2000)). To determine whether ATX was also involved in hChk2 activation, the effect of AS oligonucleotide treatment on the IR-dependent phosphorylation of hChk2 was examined. […] Moreover, the differential effects of AS treatment on p53 expression versus hChk2 activation argue against the possibility that AS exposure leads to nonspecific inhibition of checkpoint signaling responses to IR-induced DNA damage.

A further data set deals with U2OS cells. Kind of data set: Cell-cycle distribution by flow cytometry. The method, then: Since p53 plays a central role in activation of the G1 checkpoint, and influences S, G2, and M checkpoints as well (Giaccia and Kastan, Genes & Development 12:2973-2983 (1998); Ko and Prives, supra, 1996), a functional deficiency of ATX might alter the cell-cycle arrest responses to IR and other genotoxic agents. To test this possibility, U2OS cells were pre-treated with S or AS oligonucleotides, exposed to IR, and cell-cycle distributions at 24 h post-irradiation were determined.
The G2 checkpoint inhibitor was added to the culture medium at 8 h prior to harvest for determination of cell-cycle distributions (FIG. 3E, left panel), and immunoblotting for ATX expression (right panel).
A general note: In flow cytometry, cells or beads pass a laser one at a time.

As for “5′-AGCAAGCTCCCTCCTGTCTC-3′ (all phosphorothioate, sugars by position and methylation of C not given here) [AS oligonucleotide, ATX antisense phosphorothioate oligonucleotide complementary to ATX nucleotides 210-229]”, in the data set with ATX (immunoblot), the “expression levels of control proteins ATM and PLC-γ1” value is “no significant change”. Also, in the data set with ATX (over 10 independent trials), the “reduction in ATX protein” value is listed as 50-90%. Besides, the “IR-dependent phosphorylation of hChk2” value in the data set with hChk2 is listed as “retained the ability to phosphorylate hChk2”. Further, the “cell-cycle distribution after IR exposure” value in the data set with U2OS cells (24 h post-irradiation) is “arrested primarily in G2/M phase”. Further, the “subpopulation with <2N DNA content (apoptotic cells)” value with U2OS cells (no IR) is “increased subpopulation”. In the data set with U2OS cells (no IR, versus S oligonucleotide), the “cell-cycle distribution in the absence of IR” value is “reduction in the percentage of G1 phase cells, and a concomitant accumulation of G2/M phase cells”.
